Data from patent US8552002B2 (Novartis AG, priority 2004, dated 2013).
Where two headings read alike, the source gives them in different places.

Columns and labels:
KDR = target: T1, KDR (Homo sapiens, UniProt P35968); assay: Inhibitory activity against KDR (VEGF-R2), in vitro data of Examples 170 and 207; format: biochemical; details: read-out: KDR inhibition at 10 μM
T1 construct: expressed in transfected cells; host or cells: CHO cells
Procedure, shortened: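 KDR tyrosine phosphorylation detected by luminescence after overnight 4° C capture of 20 μg lysate protein with PY20:AP antibody. Lysates came from cells given compound for 2 h at 37° C, then final 20 ng/ml VEGF for 5 min; compound-free medium as control.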

Tek = target: T2, Tek (Homo sapiens, UniProt Q02763); assay: Recombinant GST-Tek (Tie-2) tyrosine kinase assay (33P into poly(Glu,Tyr)); format: biochemical; details: Examples 1 to 169
T2 construct: amino acids 773-1124 of the cytoplasmic kinase domain of human Tek, N-terminally fused to GST; made in house; host or cells: Sf9 insect cells (baculovirus)
T2 sequence (Q02763 773-1124): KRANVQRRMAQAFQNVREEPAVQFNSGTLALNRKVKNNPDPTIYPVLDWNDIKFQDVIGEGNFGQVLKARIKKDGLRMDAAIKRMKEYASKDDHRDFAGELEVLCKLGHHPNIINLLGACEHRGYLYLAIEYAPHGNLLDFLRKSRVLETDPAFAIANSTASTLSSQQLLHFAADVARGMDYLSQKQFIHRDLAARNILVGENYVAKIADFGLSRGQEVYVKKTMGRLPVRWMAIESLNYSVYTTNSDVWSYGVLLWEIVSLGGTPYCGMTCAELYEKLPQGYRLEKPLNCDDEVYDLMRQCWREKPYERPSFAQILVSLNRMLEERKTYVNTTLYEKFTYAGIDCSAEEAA
Procedure, shortened: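 GST-fused human Tek kinase domain (aa 773-1124), baculovirus-expressed, 150 ng per reaction; 10 μg/mL poly(Glu,Tyr) 4:1, 4.0 μM [γ-33P]ATP, 3 mM MnCl2/3 mM MgCl2, pH 7.5, 30 min at ambient temperature. 33P uptake read on PVDF filters; IC50 by linear regression from four concentrations in duplicate.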

FGFR3 (K650E) = target: T3, FGFR3 (K650E) (Homo sapiens, UniProt P22607, K650E); assay: Recombinant GST-FGFR-3-K650E tyrosine kinase assay (33P into poly(Glu,Tyr)); format: biochemical; details: read-out: FGFR3 (K650E) inhibition at 10 μM
T3 construct: amino acids 411-806 of the cytoplasmic domain of human FGFR-3, N-terminally fused to GST; made in house; host or cells: Sf9 insect cells (baculovirus)
T3 sequence (P22607 411-806 K650E): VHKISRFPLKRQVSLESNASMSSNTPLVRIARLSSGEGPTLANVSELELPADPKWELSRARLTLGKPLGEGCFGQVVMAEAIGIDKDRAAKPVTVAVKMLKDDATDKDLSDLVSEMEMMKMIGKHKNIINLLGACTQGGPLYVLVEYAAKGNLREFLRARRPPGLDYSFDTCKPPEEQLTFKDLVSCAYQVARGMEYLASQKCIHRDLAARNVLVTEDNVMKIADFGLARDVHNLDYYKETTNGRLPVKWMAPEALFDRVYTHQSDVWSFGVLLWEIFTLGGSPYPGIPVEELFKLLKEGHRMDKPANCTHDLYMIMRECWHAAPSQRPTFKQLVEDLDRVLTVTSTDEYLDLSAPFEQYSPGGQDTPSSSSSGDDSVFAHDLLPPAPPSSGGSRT

T1 sequence (P35968 20-1356): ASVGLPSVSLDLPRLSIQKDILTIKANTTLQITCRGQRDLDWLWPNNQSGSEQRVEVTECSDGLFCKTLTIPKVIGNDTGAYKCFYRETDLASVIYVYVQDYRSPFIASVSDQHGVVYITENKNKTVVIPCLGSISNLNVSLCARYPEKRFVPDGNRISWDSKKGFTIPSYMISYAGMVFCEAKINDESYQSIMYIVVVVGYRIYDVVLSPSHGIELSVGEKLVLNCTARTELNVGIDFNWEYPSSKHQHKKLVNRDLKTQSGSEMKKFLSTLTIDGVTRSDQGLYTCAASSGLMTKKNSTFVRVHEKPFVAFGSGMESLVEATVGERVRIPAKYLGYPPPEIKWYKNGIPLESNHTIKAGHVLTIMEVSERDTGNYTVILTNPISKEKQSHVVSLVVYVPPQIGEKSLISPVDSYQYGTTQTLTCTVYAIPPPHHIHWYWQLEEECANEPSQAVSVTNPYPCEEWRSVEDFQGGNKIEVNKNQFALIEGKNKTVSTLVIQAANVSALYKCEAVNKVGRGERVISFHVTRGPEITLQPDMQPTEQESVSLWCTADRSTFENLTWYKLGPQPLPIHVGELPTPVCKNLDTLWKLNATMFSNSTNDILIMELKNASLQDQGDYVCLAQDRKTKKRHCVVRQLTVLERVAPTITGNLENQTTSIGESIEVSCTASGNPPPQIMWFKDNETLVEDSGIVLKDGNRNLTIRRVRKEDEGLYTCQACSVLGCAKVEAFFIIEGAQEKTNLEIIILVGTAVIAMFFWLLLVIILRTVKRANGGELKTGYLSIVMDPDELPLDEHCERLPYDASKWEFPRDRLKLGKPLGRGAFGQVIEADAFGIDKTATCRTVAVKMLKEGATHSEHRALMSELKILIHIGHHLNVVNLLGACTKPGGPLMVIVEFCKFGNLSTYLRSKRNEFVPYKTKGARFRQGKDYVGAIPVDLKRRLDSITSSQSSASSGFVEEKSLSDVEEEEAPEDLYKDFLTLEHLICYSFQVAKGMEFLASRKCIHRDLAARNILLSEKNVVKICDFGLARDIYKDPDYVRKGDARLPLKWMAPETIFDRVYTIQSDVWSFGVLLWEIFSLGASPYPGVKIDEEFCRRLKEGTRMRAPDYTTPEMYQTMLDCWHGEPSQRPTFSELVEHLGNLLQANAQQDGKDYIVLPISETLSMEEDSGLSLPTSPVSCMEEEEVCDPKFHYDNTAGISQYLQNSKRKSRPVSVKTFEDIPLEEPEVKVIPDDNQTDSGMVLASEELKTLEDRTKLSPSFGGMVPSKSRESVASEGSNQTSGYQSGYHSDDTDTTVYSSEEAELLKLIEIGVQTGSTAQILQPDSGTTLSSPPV

Row | SMILES | inhibition at 10 µM (KDR; 10 μM, Examples 1 to 169) | inhibition at 10 µM (Tek) | inhibition at 10 µM (FGFR3 (K650E); 10 μM, Examples 1 to 169) | melting point | inhibition at 10 µM (KDR) | inhibition at 10 µM (FGFR3 (K650E))
1 | CN1CCC(COc2cccc(Nc3cc(NC(=O)Nc4c(Cl)cccc4Cl)ncn3)c2)CC1 [Example 80, 1-(2,6-Dichloro-Phenyl)-3-{6-[3-(1-methyl-piperidin-4-ylmethoxy)-phenylamino]-pyrimidin-4-yl}-urea] | 67 to 100% | 12 to 100% | 27 to 100% | 198 to 200 °C | – | –
2 | CN1CCN(c2cccc(Nc3cc(NC(=O)Nc4c(Cl)cc(Cl)cc4Cl)ncn3)c2)CC1 [Example 86, 1-{6-[3-(4-Methyl-piperazin-1-yl)-phenylamino]-pyrimidin-4-yl}-3-(2,4,6-trichloro-phenyl)-urea] | 67 to 100% | 12 to 100% | 27 to 100% | 138 to 142 °C | – | –
3 | CN1CCN(Cc2ccc(Nc3cc(NC(=O)Nc4c(Cl)cc(Cl)cc4Cl)ncn3)cc2)CC1 [Example 84, 1-{6-[4-(4-Methyl-piperazin-1-ylmethyl)-phenylamino]-pyrimidin-4-yl}-3-(2,4,6-trichloro-phenyl)-urea] | 67 to 100% | 12 to 100% | 27 to 100% | 194 to 196 °C | – | –
4 | CN1CCC(COc2ccc(Nc3cc(NC(=O)Nc4c(Cl)cc(Cl)cc4Cl)ncn3)cc2)CC1 [Example 69, 1-{6-[4-(1-Methyl-piperidin-4-ylmethoxy)-phenylamino]-pyrimidin-4-yl}-3-(2,4,6-trichloro-phenyl)-urea] | 67 to 100% | 12 to 100% | 27 to 100% | 189 to 191 °C | – | –
5 | CN1CCC(COc2cccc(Nc3cc(NC(=O)Nc4c(Cl)cc(Cl)cc4Cl)ncn3)c2)CC1 [Example 81, 1-{6-[3-(1-Methyl-piperidin-4-ylmethoxy)-phenylamino]-pyrimidin-4-yl}-3-(2,4,6-trichloro-phenyl)-urea] | 67 to 100% | 12 to 100% | 27 to 100% | 222 to 225 °C | – | –
6 | COc1cc(OC)c(Cl)c(NC(=O)N(C)c2cc(Nc3ccc(N4CCN(C)CC4)cc3)ncn2)c1Cl [Example 2, 3-(2,6-Dichloro-3,5-dimethoxy-phenyl)-1-methyl-1-{6-[4-(4-methyl-piperazin-1-yl)-phenylamino]-pyrimidin-4-yl}-urea] | 67 to 100% | 12 to 100% | 27 to 100% | 221 °C (dec.) | – | –
7 | CN1CCN(c2ccc(Nc3cc(NC(=O)Nc4cccc(Cl)c4Cl)ncn3)cc2)CC1 [Example 77, 1-(2,3-Dichloro-Phenyl)-3-{6-[4-(4-methyl-piperazin-1-yl)-phenylamino]-pyrimidin-4-yl}-urea] | 67 to 100% | 12 to 100% | 27 to 100% | 279 to 281 °C | – | –
8 | CC(C)(C)[Si](C)(C)O[C@H]1CC[C@H](Nc2cc(NC(=O)Nc3c(Cl)cc(Cl)cc3Cl)ncn2)CC1 [Example 87, 1-{6-[(trans)-4-(tert-Butyl-dimethyl-silanyloxy)-cyclohexylamino]-pyrimidin-4-yl}-3-(2,4,6-trichloro-phenyl)-urea] | – | 12 to 100% | – | 198 to 199 °C | 67 to 100% | 27 to 100%
9 | O=C(Nc1cc(N[C@H]2CC[C@H](O)CC2)ncn1)Nc1c(Cl)cc(Cl)cc1Cl [Example 88, 1-[6-((trans)-4-Hydroxy-cyclohexylamino)-pyrimidin-4-yl]-3-(2,4,6-trichloro-phenyl)-urea] | 67 to 100% | 12 to 100% | 27 to 100% | 171 to 173 °C | – | –
10 | CN1CCC(COc2ccc(Nc3cc(NC(=O)Nc4c(Cl)cccc4Cl)ncn3)cc2)CC1 [Example 71, 1-(2,6-Dichloro-phenyl)-3-{6-[4-(1-methyl-piperidin-4-ylmethoxy)-phenylamino]-pyrimidin-4-yl}-urea] | 67 to 100% | 12 to 100% | 27 to 100% | 183 to 185 °C | – | –
11 | CN1CCN(c2ccc(Nc3cc(NC(=O)Nc4cc(Cl)ccc4Cl)ncn3)cc2)CC1 [Example 72, 1-(2,5-Dichloro-Phenyl)-3-{6-[4-(4-methyl-piperazin-1-yl)-phenylamino]-pyrimidin-4-yl}-urea] | 67 to 100% | 12 to 100% | 27 to 100% | 223 to 225 °C | – | –
12 | CN1CCN(c2ccc(Nc3cc(NC(=O)Nc4c(Cl)cc(Cl)cc4Cl)ncn3)cc2)CC1 [Example 73, 1-{6-[4-(4-Methyl-piperazin-1-yl)-phenylamino]-pyrimidin-4-yl}-3-(2,4,6-trichloro-phenyl)-urea] | 67 to 100% | 12 to 100% | 27 to 100% | 209 to 211 °C | – | –
13 | Cc1cccc(Cl)c1NC(=O)Nc1cc(Nc2ccc(OCC3CCN(C)CC3)cc2)ncn1 [Example 70, 1-(2-Chloro-6-methyl-phenyl)-3-{6-[4-(1-methyl-piperidin-4-ylmethoxy)-phenylamino]-pyrimidin-4-yl}-urea] | 67 to 100% | 12 to 100% | 27 to 100% | 178 to 180 °C | – | –
14 | CC(C)Nc1cc(NC(=O)Nc2c(Cl)cccc2Cl)ncn1 [Example 68, 1-(2,6-Dichloro-phenyl)-3-(6-isopropylamino-pyrimidin-4-yl)-urea] | 67 to 100% | 12 to 100% | 27 to 100% | 203 to 204 °C | – | –
15 | Cc1cccc(Cl)c1NC(=O)Nc1cc(N[C@H]2CC[C@H](O)CC2)ncn1 [Example 90, 1-(2-Chloro-6-methyl-phenyl)-3-[6-((trans)-4-hydroxy-cyclohexylamino)-pyrimidin-4-yl]-urea] | 67 to 100% | 12 to 100% | 27 to 100% | 149 to 152 °C | – | –
16 | O=C(Nc1cc(N[C@H]2CC[C@H](OC(=O)Nc3c(Cl)cccc3Cl)CC2)ncn1)Nc1c(Cl)cccc1Cl [Example 66, (2,6-dichloro-phenyl)-carbamic acid 4-{6-[3-(2,6-dichloro-phenyl)-ureido]-pyrimidin-4-ylamino}-cyclohexylester] | 67 to 100% | 12 to 100% | 27 to 100% | 222 to 224 °C | – | –
17 | CN1CCN(c2ccc(Nc3cc(NC(=O)Nc4ccc(Cl)c(Cl)c4)ncn3)cc2)CC1 [Example 75, 1-(3,4-Dichloro-phenyl)-3-{6-[4-(4-methyl-piperazin-1-yl)-phenylamino]-pyrimidin-4-yl}-urea] | 67 to 100% | 12 to 100% | 27 to 100% | 260 to 262 °C | – | –
18 | Cc1cccc(Cl)c1NC(=O)Nc1cc(NC(C)C)ncn1 [Example 65, 1-(2-Chloro-6-methyl-phenyl)-3-(6-isopropylamino-pyrimidin-4-yl)-urea] | 67 to 100% | 12 to 100% | 27 to 100% | 233 °C | – | –
19 | CN1CCN(Cc2ccc(Nc3cc(NC(=O)Nc4c(Cl)cccc4Cl)ncn3)cc2)CC1 [Example 83, 1-(2,6-Dichloro-Phenyl)-3-{6-[4-(4-methyl-piperazin-1-ylmethyl)-phenylamino]-pyrimidin-4-yl}-urea] | 67 to 100% | 12 to 100% | 27 to 100% | 199 to 201 °C | – | –
20 | Cc1cccc(Cl)c1NC(=O)Nc1cc(Nc2ccc(CN3CCN(C)CC3)cc2)ncn1 [Example 82, 1-(2-Chloro-6-methyl-phenyl)-3-{6-[4-(4-methyl-piperazin-1-ylmethyl)-phenylamino]-pyrimidin-4-yl}-urea] | 67 to 100% | 12 to 100% | 27 to 100% | 199 to 201 °C | – | –
21 | CN1CCN(c2ccc(N(C(=O)Nc3cccc(Cl)c3Cl)c3cc(N)ncn3)cc2)CC1 [Example 76, 1-(6-Amino-pyrimidin-4-yl}-3-(2,3-dichloro-phenyl)-1-[4-(4-methyl-piperazin-1-yl)-phenyl]-urea] | 67 to 100% | 12 to 100% | 27 to 100% | 280 to 282 °C | – | –
22 | CC(C)(C)[Si](C)(C)O[C@H]1CC[C@H](Nc2cc(NC(=O)Nc3c(Cl)cccc3Cl)ncn2)CC1 [Example 91, 1-{6-[(trans)-4-(tert-Butyl-dimethyl-silanyloxy)-cyclohexylamino]-pyrimidin-4-yl}3-(2,6-dichloro-phenyl)-urea] | – | 12 to 100% | – | 211 to 212 °C | 67 to 100% | 27 to 100%
23 | CN1CCN(c2ccc(Nc3cc(NC(=O)Nc4cc(Cl)c(Cl)cc4Cl)ncn3)cc2)CC1 [Example 74, 1-{6-[4-(4-Methyl-piperazin-1-yl)-phenylamino]-pyrimidin-4-yl}-3-(2,4,5-trichloro-phenyl)-urea] | 67 to 100% | 12 to 100% | 27 to 100% | 252 to 254 °C | – | –
